Measurements taken from patent US11008325B2, “Inhibitors of cancer invasion, attachment, and/or metastasis” (VIRGINIA COMMONWEALTH UNIVERSITY, priority 2016, dated 2021).
“Also recorded” adds a separate entry of the source.

Columns and labels:
[1] = tested on: RWPE-1 cells overexpressing mda-9; assay: modified Boyden Chamber invasion assay; format: cell-based, human
Description: (§1) FIGS. 17A-17H. Effect of PDZ1i on invasion, MDA-9/IGF-R1 interaction and IGF-R1, STAT3 and SRC phosphorylation. FIG. 17A) Different cancer cells (25,000 cells/well) from various anatomic origins were pre-treated with either DMSO (vehicle) or PDZ1i (dose as indicated) and invasion ability was assayed using modified Boyden Chamber according to the manufacturer's instructions. Photomicrographs were taken at 10× magnification and quantification of the results of three independent experiments is provided in the graphs. The data presents mean±S.D. B) The designated cells were treated with DMSO or PDZ1i and invasion properties were determined using a modified Boyden Chamber assay (BD bioscience). RWPE-1 mda-9: mda-9 transiently overexpressing cell line. […] FIG. 17E) Cells were growth starved for 24 h and treated with either DMSO or PDZ1i (dose indicated in μM) for 6 h. Cells were treated with human recombinant IGFBP-2 (hIGFBP-2, 10 ng/ml) for 2 h, lysates were prepared and western blot analysis was conducted with specific antibodies. […] Cells were treated with human recombinant IL-6 (hIGFBP-2, 1 ng/ml) for 2 h, cell lysates were prepared and analyzed by western blotting. […]
(§2) Boyden chamber assays were done to investigate the invasive properties of cancer cells^26, 27. […] After 18 h, invasive cells were photographed and analyzed.

[2] = tested on: Mcl-1, Bcl-xL, Bid, MT1-MMP-PEX domain, IL20R, RKIP, Jnk2, Ubc13, SIAH1, Ship2-SAM; assay: binding to panel of protein-protein interaction proteins; settings: 50 μM, 1:1 ligand/protein ratio
Description: In addition, the molecules are tested against a series of proteins available in the laboratory involved in protein-protein interactions including Mcl-1, Bcl-xL, Bid, MT1-MMP-PEX domain, IL20R, RKIP, Jnk2 (JIP-binding site Met labeled), Ubc13, SIAH1, and Ship2-SAM. […] In designing compounds using elements of the libraries, particular emphasis will be put on drug-like properties of the compounds. […] Additionally, the MTD and PK properties on selected compounds prior to their eventual evaluations in vivo in will be addressed. Preliminarily, PK studies with 113B7 indicate that the compound is stable and long-lived with nearly 100% bioavailability when administered IP (FIG. 53).

migration (SAR, Table 4) = format: cell-based
ImPHFA cells = assay: clonogenic radiosurvival (colony formation); format: cell-based, human; settings: 50 μM PDZ1i 2 h prior to radiation, 14 d
Description: (§3) FIGS. 8A-8D. PDZ1i produces similar effects to mda-9/syntenin knockdown post-radiation. FIG. 8A. ImPHFA and U87 cells were treated with 50 μM PDZ1i 2 h prior to radiation and analyzed for colony formation after 14 d. FIG. 8B. U87 cells were treated with 50 μM PDZ1i 2 h prior to radiation and analyzed via MTT assay after 24 h. FIG. 8C. U87 cells were pretreated with 50 μM PDZ1i 2 h prior to radiation and subsequently seeded in a trans-well Matrigel invasion assay and stained after 24 h. Invasion was quantified from 5 random fields in FIG. 8D. Error bars=±s.d. *p<0.05, **p<0.01.
(§4) Clonogenic radiosurvival experiments were carried out as described previously (4,7). Briefly, cells were diluted, seeded on 6-cm dishes, and after the cells attached, treated with DMSO or PDZ1i (12.5, 25, or 50 μM) in the medium for 2 h before irradiation. Cells were incubated overnight, and the medium changed to nondrug containing medium 16 h postirradiation. Cells were incubated further for 14 days, stained with 2% Giemsa solution, and colonies consisting of 50 or more were counted. Cell viability was assessed through MTT analysis as described previously (8).

U87 cells = assay: clonogenic radiosurvival (colony formation); format: cell-based, human; settings: 50 μM PDZ1i 2 h prior to radiation, 14 d
Description: as §3, §4

[3] = target: MDA-9/IGF-1R interactions (Homo sapiens, UniProt O00560); assay: co-immunoprecipitation in DU145 and ARCaPM cells; format: cell-based; settings: PDZ1i for 6 h
Sequence of MDA-9/IGF-1R interactions (O00560 2-298 limits assumed): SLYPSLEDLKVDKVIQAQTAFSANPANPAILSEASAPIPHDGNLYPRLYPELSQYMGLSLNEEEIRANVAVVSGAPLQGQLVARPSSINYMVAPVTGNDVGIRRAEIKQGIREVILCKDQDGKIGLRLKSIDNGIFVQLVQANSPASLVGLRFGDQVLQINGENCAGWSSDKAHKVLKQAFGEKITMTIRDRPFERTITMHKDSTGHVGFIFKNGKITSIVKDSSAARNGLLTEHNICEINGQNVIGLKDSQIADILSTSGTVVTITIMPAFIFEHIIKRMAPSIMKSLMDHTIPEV
Description: as §1, with “antibodies. FIG. 17F) Cells were serum-starved for 24 h and treated with either DMSO or PDZ1i (20 μM) for 6 h.” for “antibodies.”
Next, the effect of PDZ1i on MDA-9 and IGF-1R interactions was determined. […]

[4] = tested on: various types of cancer cells including PC; assay: modified Boyden Chamber invasion assay; format: cell-based, human; settings: pre-treatment, dose as indicated (20 μM or 40 μM)
Description: as §1, §2

## Cc1cc(NC(=O)c2nc3[nH]c4c(c(=O)n3n2)CCC4)c(C)cc1NC(=O)CCc1nnc(-c2ccccc2)o1 [113B7, N-(2,5-dimethyl-4-(3-(5-phenyl-1,3,4-oxadiazol-2-yl)propanamido)phenyl)-8-oxo-5,6,7,8-tetrahydro-4H-cyclopenta[d][1,2,4]triazolo[1,5-a]pyrimidine-2-carboxamide]
[1]
  mda-9-mediated invasion: significantly attenuated
[2]
  binding to protein-protein interaction panel: no appreciable binding
Migration (SAR, Table 4)
  % migr.: 62%
ImPHFA cells
  radiosensitivity (colony formation): did not further radiosensitize
U87 cells
  radiosensitivity (colony formation): markedly more radiosensitivity
[3]
  MDA-9/IGF-1R interaction: selectively inhibits
[4]
  invasion: inhibited invasion in a dose-dependent manner; also recorded: significantly inhibited the invasion
[4]; listed as PDZ1i
  invasion: significantly inhibited the invasion
